One test has as its system Cryptococcus neoformans. Nature of the test: in vitro antifungal susceptibility testing (MIC, MFC; broth macrodilution), Tables 1-7. The format is cell-based. Conditions: for MIC: read-out: MIC80 (Minimum inhibitory concentration 80%). The text has this: (§1) The fungi that were employed included two reference strains, C. neoformans var. neoformans H99 and C. albicans A39 and the following clinical isolates: (1) two strains of fluconazole-resistant C. neoformans var. neoformans (135.95 and 114.96); (2) two strains of C. neoformans var. gattii (119.95 and 114.95); (3) two strains of fluconazole-resistant C. albicans (102.96 and 103.96); and (4) one strain each of Torulopsis glabrata (142.91), Candida parapsilosis (111.96), Candida krusei (132.91), C. tropicalis (110.96), Candida lusitaniae (111.92), Fusarium solani (152.89), Aspergillus fumigatus (168.95), and Aspergillus flavus (112.96). Antifungal susceptibility testing was performed using an RPMI-1640 medium (Sigma Chemical Co., St. Louis, Mo.) with glutamine, without sodium bicarbonate, and buffered at pH 7.0 with 0.165 M morpholine-propanesulfonic acid (MOPS).
(§2) In vitro susceptibility testing in the form of Minimum Inhibitory Concentration (MIC) experiments were performed using the broth macrodilution method according to the recommendations of the National Committee for Clinical Laboratory Standards (see 1995 manual). The only difference compared to the standardized procedure was the choice of drug dilutions ranging from 100 to 0.09 μg/ml. Briefly, this procedure specifies an inoculum grown at 35° C. and adjusted to a concentration of 0.5-2.5×10^3 CFU/ml with an incubation of the test performed at 35° C. and reading at 48 hours for all yeasts except for C. neoformans which is interpreted at 72 hr.
(§3) Minimum Fungicidal Concentration (MFC) experiments were adapted from a method by McGinnis (McGinnis, M. R., (1980) "Susceptibility testing and bioassay procedure", p. 431, Academic Press, Inc., New York). Briefly, 10 μl aliquots from tubes with growth inhibition were plated onto Sabouraud agar plates.
(§4) The fungi that were employed included two quality control reference strains, C. neoformans var. neoformansH99 and C. albicans A39 and the following clinical isolates: (1) four strains of C. neoformans var. neoformans (167.95; 135.95; 114.96; and 133.95) of which three were fluconazole-resistant>64 μg/ml (135.95; 114.96; and 133.95); (2) two strains of C. neoformans var. gattii (119.95 and 114.95); (3) two strains of fluconazole-resistant>64 μg/ml C. albicans (102.96 and 103.96); and (4) one strain each of C. glabrata (142.91), Candida parapsilosis (111.96), Candida krusei (132.91), C. tropicalis (110.96), Candida lusitaniae (111.92), Fusarium solani (152.89), Aspergillus fumigatus (168.95), Rhizopus arrhizus (117.89), Paecilomyces lilacinus (137.90), and Aspergillus flavus (112.96). Antifungal susceptibility testing was performed using an RPMI-1640 medium (Sigma Chemical Co., St. Louis, Mo.) with glutamine, without sodium bicarbonate, and buffered at pH 7.0 with 0.165 M morpholinepropanesulfonic acid (MOPS).
(§5) Minimum Fungicidal Concentration (MFC) experiments were adapted from a method by McGinnis (McGinnis, M. R., (1980) "Susceptibility testing and bioassay procedure", p.431, Academic Press, Inc., New York). Briefly, 10 μl aliquots from tubes with growth inhibition were plated onto Sabouraud agar plates.

Another test deals with Candida albicans. Described as above. The format is cell-based. Conditions: read-out: MIC80 (Minimum inhibitory concentration 80%).
Description: as §1, §2, §3, §4, §5

Another test relates to Candida albicans A39. Description: antifungal susceptibility testing (MIC, MFC), extended spectrum. The format is cell-based. Conditions: Candida albicans, A39, read-out: MICs.
Description: as §1, with “Antifungal susceptibility testing for compounds set forth in Examples 1-20 is discussed hereinbelow. The” for “The”
as §2
(§6) Minimum Fungicidal Concentration (MFC) experiments were adapted from a method by McGinnis (McGinnis, M. R., (1980) "Susceptibility testing and bioassay procedure", p. 431, Academic Press, Inc., New York). Briefly, 10 μl aliquots from tubes with growth inhibition were plated onto Sabouraud agar plates. The lowest drug concentration that yielded three or fewer yeasts colonies was recorded as the MFC.
(§7) Antifungal susceptibility testing for compounds set forth in Examples 21-28 is discussed hereinbelow. […]
(§8) Minimum Fungicidal Concentration (MFC) experiments were adapted from a method by McGinnis (McGinnis, M. R., (1980) "Susceptibility testing and bioassay procedure", p.431, Academic Press, Inc., New York). […] The lowest drug concentration that yielded 3 or fewer yeasts colonies was recorded as the MFC. […]

Test [1] relates to Cryptococcus neoformans H99. The test is described as above. In kind it is cell-based, C. neoformans var. neoformans. Particulars: Cryptococcus neoformans, H99, read-out: MICs.
Description: as §1, with “Antifungal susceptibility testing for compounds set forth in Examples 1-20 is discussed hereinbelow. The” for “The”
(§9) In vitro susceptibility testing in the form of Minimum Inhibitory Concentration (MIC) experiments were performed using the broth macrodilution method according to the recommendations of the National Committee for Clinical Laboratory Standards (see 1995 manual). […] Briefly, this procedure specifies an inoculum grown at 35° C. and adjusted to a concentration of 0.5-2.5×10^3 CFU/ml with an incubation of the test performed at 35° C. and reading at 48 hours for all yeasts except for C. neoformans which is interpreted at 72 hr.
(§10) Minimum Fungicidal Concentration (MFC) experiments were adapted from a method by McGinnis (McGinnis, M. R., (1980) "Susceptibility testing and bioassay procedure", p. 431, Academic Press, Inc., New York). […] The lowest drug concentration that yielded three or fewer yeasts colonies was recorded as the MFC. […]
as §8

For the next test, the system named is C. neoformans 133.95. The test is described as above. Particulars: Cryptococcus neoformans, read-out: fluconazole-resistant. The format is cell-based, C. neoformans var. neoformans. On the procedure:
as §7, §9, §8

In another test the test system is C. neoformans 135.95. Described as above. Conditions: Cryptococcus neoformans, read-out: fluconazole-resistant. In kind it is cell-based, C. neoformans var. neoformans. How it is done: as §7, §9, §8
The next test has as its system C. neoformans 114.96. Described as above. Particulars: Cryptococcus neoformans, read-out: fluconazole-resistant. The format is cell-based, C. neoformans var. neoformans.
Description: as §1, with “Antifungal susceptibility testing for compounds set forth in Examples 1-20 is discussed hereinbelow. The” for “The”
as §9, §10, §8

A further test has as its system C. albicans 102.96. Described as above. The format is cell-based, Candida albicans. Particulars: Candida albicans, 102.96, read-out: fluconazole-resistant.
Description: as §1, with “Antifungal susceptibility testing for compounds set forth in Examples 1-20 is discussed hereinbelow. The” for “The”
as §2, §6
as §4, with “Antifungal susceptibility testing for compounds set forth in Examples 21-28 is discussed hereinbelow. The” for “The”
(§11) Minimum Fungicidal Concentration (MFC) experiments were adapted from a method by McGinnis (McGinnis, M. R., (1980) "Susceptibility testing and bioassay procedure", p.431, Academic Press, Inc., New York). Briefly, 10 μl aliquots from tubes with growth inhibition were plated onto Sabouraud agar plates. The lowest drug concentration that yielded 3 or fewer yeasts colonies was recorded as the MFC. Several drugs were also rescreened with a subculture of 100 μl aliquots from tubes with no growth and there was no change in MFC.

In a further test the test system is C. albicans 103.96. The description is as above. In kind it is cell-based, Candida albicans. Particulars: Candida albicans, 103.96, read-out: fluconazole-resistant.
Description: as §1, with “Antifungal susceptibility testing for compounds set forth in Examples 1-20 is discussed hereinbelow. The” for “The”
as §2, §6
as §4, with “Antifungal susceptibility testing for compounds set forth in Examples 21-28 is discussed hereinbelow. The” for “The”
as §11

Converted amounts (≈) assume the structure as drawn. Like-named read-outs stand apart in the source and are kept apart here. Where only a bound is given, the exact number is not on record here.

With `C[C@@H]1[C@H](O)[C@@H](C)/C=C/C=C/C=C/C=C/C=C/C=C/C=C/[C@H](O[C@@H]2O[C@H](C)[C@@H](O)[C@H](N)[C@@H]2O)C[C@@H]2O[C@](O)(C[C@@H](O)C[C@@H](O)[C@H](O)CC[C@@H](O)C[C@@H](O)CC(=O)O[C@H]1C)C[C@H](O)[C@H]2C(=O)O` [Amphotericin, reference compound], the MIC amounted to 1 µg/mL (≈ 1.08 µM) in the test on Cryptococcus neoformans (35° C., 72 hr); 1 µg/mL (≈ 1.08 µM) in the test on Candida albicans (35° C., reading at 48 hours); 1 µg/mL (≈ 1.08 µM) in the test on Candida albicans A39; 1 µg/mL (≈ 1.08 µM) in [1].

Regarding `OC(Cn1cncn1)(Cn1cncn1)c1ccc(F)cc1F` [Fluconazole, reference compound], the “MIC80 (Minimum inhibitory concentration 80%)” value against Cryptococcus neoformans (35° C., 72 hr) was found to be 2.0 µg/mL (≈ 6.53 µM). In addition, the MIC in the test on Cryptococcus neoformans (72 h) was 2 µg/mL (≈ 6.53 µM); with Candida albicans (48 h), 0.25 µg/mL (≈ 0.816 µM); in the test with Candida albicans A39, 0.25 µg/mL (≈ 0.816 µM); with C. neoformans 133.95, over 64 µg/mL; with C. neoformans 135.95, over 64 µg/mL; in the test on C. neoformans 114.96, over 64 µg/mL. In addition, the MIC in the test with C. albicans 102.96 and with C. albicans 103.96 was over 64 µg/mL throughout.
